In ChEMBL document CHEMBL5126586, “Chemical analysis of amyloid β aggregation inhibitors derived from Geranium thunbergii” (Bioorg Med Chem, 2022):

How the values were obtained:
[1] = target: T1, Amyloid-beta precursor protein (Homo sapiens, UniProt P05067); test: Inhibition of amyloid beta 1 to 42 aggregation (unknown origin) incubated for 24 hrs by inverted fluorescence microscopic analysis
[2] = target: T1, Amyloid-beta precursor protein; test: Inhibition of amyloid beta 1 to 42 aggregation (unknown origin) incubated for 24 hrs by inverted fluorescence microscopic analysis relative to control; settings: concentration not given here
[3] = target: T1, Amyloid-beta precursor protein; test: Inhibition of amyloid beta 1 to 42 aggregation (unknown origin) incubated for 24 hrs by ThT fluorescence assay relative to control; settings: concentration not given here
[4] = target: T1, Amyloid-beta precursor protein; test: Inhibition of amyloid beta 1 to 42 aggregation (unknown origin) incubated for 24 hrs by ThT fluorescence assay

T1 sequence (P05067 whole entry): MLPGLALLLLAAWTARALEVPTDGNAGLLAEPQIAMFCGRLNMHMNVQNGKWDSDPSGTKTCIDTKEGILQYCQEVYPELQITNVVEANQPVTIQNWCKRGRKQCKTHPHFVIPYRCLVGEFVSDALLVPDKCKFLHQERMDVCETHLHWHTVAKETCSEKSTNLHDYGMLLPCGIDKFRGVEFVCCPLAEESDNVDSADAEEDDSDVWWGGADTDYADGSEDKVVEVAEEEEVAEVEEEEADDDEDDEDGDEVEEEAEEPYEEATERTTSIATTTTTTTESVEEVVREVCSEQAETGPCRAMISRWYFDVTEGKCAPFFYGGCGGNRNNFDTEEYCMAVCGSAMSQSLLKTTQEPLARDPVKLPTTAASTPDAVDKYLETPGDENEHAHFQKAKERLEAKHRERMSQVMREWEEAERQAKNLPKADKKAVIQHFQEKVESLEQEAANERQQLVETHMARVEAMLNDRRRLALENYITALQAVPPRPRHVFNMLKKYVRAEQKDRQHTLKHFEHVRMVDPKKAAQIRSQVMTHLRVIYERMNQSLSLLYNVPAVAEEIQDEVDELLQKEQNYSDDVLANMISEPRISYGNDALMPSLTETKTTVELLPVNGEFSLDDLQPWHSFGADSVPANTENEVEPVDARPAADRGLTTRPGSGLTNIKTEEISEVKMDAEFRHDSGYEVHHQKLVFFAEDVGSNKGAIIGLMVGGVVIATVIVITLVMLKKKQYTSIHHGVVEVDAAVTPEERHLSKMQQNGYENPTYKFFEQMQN

SMILES | EC50 [1] | inhibition [2] | inhibition [3] | EC50 [4]
O=c1oc2c(O)c(O)cc3c(=O)oc4c(O)c(O)cc1c4c23 [ELLAGIC ACID] | 563 µM | 0.15% | < 0.01% | –
O=C(O[C@@H]1O[C@@H]2COC(=O)c3cc(O)c(O)c(O)c3-c3c(cc(O)c(O)c3O)C(=O)O[C@H]([C@H]1O)[C@@H]2O)c1cc(O)c(O)c(O)c1 [CORILAGIN] | 5.04 µM | 25% | 14% | 14 µM
O=C(O)c1cc(O)c(O)c(O)c1 [GALLIC ACID] | 18.8 µM | 92% | – | 9.99 µM
O=C(O)c1cc(O)c(O)c(O)c1-c1c(C(=O)O)cc(O)c(O)c1O | 562 µM | < 0.01% | < 0.01% | –
O=C1O[C@H]2[C@@H]3OC(=O)c4cc(O)c(O)c(O)c4-c4c(cc(O)c(O)c4O)C(=O)OC[C@H]2O[C@@H](OC(=O)c2cc(O)c(O)c(O)c2)[C@@H]3OC(=O)c2cc(O)c(O)c3c2[C@@H]2C1=CC(=O)[C@](O)(O3)C2(O)O [GERANIIN] | 7.03 µM | – | – | 10.5 µM
